Laboratory results from US20260325504A1, “Genetically Engineered Human Pituitary Corticotroph Tumor Organoids Exhibit Divergent Responses to Selective Glucocorticoid Receptor Modulators” (Corcept Therapeutics Incorporated, priority 2022, published 2026).
Entries after “also recorded” stand apart in the source; their conditions may differ.

What was measured:
PitNET organoids = test: ACTH secretion from PitNET (summary); type: cell-based, human
Description: Sonic Hedgehog (SHH) was withdrawn from the organoid growth media 16 hours prior to treatment. The experimental treatment groups included: vehicle (Veh), mifepristone (500 nM, Selleckchem S2606), GANT61 (5 μM, Stemcell Technologies 73692), ketoconazole (Keto, 10 μM, Selleckchem S1353), pasireotide (Pas, 100 nM, Target Mol TP2207-SB001), octreotide (Oct, 100 nM, Selleckchem P1017), mifepristone plus GANT61, mifepristone plus Keto, mifepristone plus Pas, relacorilant (500 nM, Corcept Therapeutics CORT125134), relacorilant plus Pas, relacorilant plus Oct, or dexamethasone (Dexa, 100 nM, SIGMA S4902). In the combination treatments, cultures were pretreated with the GANT61, Keto, Pas or Oct for 2 hours prior to treatment with mifepristone or Rela. […] The IC50 values used for each hPITO line for each drug were determined based on dose responses (FIG. 12). […]
Organoid conditioned media was collected and ACTH secretion using an ELISA according to the manufacturer's protocol (Novus Biologicals Human ACTH ELISA Kit NBP2-66401). The optical density was measured at a wavelength of 450 nm, and ACTH concentration (pg/mL) was interpolated using a standard curve with a 4-parameter logistic regression analysis using GraphPad Prism (v9.3.1).

progesterone receptor = details: cited from earlier work
SSTR2 = test: Differential expression of SSTR2 (qRT-PCR) in iPSC generated pituitary organoids; type: cell-based, human; details: for SSTR2 induction relative to SSTR5: PitNET organoids, summary; for induction in SSTR2 expression, mifepristone compared to relacorilant / expression of SSTR2: iPSC organoids; for induction in SSTR2 expression, mifepristone compared to relacorilant: 500 nM each, FIG. 5A; for expression of SSTR2: 500 nM, vs vehicle
Description: (§1) Sonic Hedgehog (SHH) was withdrawn from the organoid growth media 16 hours prior to treatment. The experimental treatment groups included: vehicle (Veh), mifepristone (500 nM, Selleckchem S2606), GANT61 (5 μM, Stemcell Technologies 73692), ketoconazole (Keto, 10 μM, Selleckchem S1353), pasireotide (Pas, 100 nM, Target Mol TP2207-SB001), octreotide (Oct, 100 nM, Selleckchem P1017), mifepristone plus GANT61, mifepristone plus Keto, mifepristone plus Pas, relacorilant (500 nM, Corcept Therapeutics CORT125134), relacorilant plus Pas, relacorilant plus Oct, or dexamethasone (Dexa, 100 nM, SIGMA S4902). In the combination treatments, cultures were pretreated with the GANT61, Keto, Pas or Oct for 2 hours prior to treatment with mifepristone or Rela. PitNET tissue derived organoids hPITO36, hPITO37, hPITO38, hPITO39, and hPITO40 were treated with the following experimental conditions: Vehicle (1), pasireotide (2), relacorilant (3), relacorilant & pasireotide (4), mifepristone (5), mifepristone & pasireotide (6). The IC50 values used for each hPITO line for each drug were determined based on dose responses (FIG. 12). All organoid cultures were treated for 48 hours prior to analysis.
(§2) RNA was extracted from PitNET tissue or iPSC generated organoids using TRI Reagent® (Molecular Research Center Inc TR118) and the High Capacity cDNA Reverse Transcription Kit (Applied Biosystems, Foster City, CA) was used for cDNA synthesis of RNA following the recommended protocol. For each sample, 60 ng RNA was reverse transcribed to yield approximately […] total cDNA that was then used for the qRT-PCR. Pre-designed real-time polymerase chain reaction assays were purchased for the following genes: TPit (Thermo Fisher Scientific 4331182 Hs00193027), SF1 (Thermo Fisher Scientific 4331182 Hs00610436), SSTR2 (Thermo Fisher Scientific 4331182 Hs00265624_s1), SSTR5 (Thermo Fisher Scientific 4331182 Hs00990407_s1), POMC (Thermo Fisher Scientific 4331182 Hs01596743_ml), hPRT (Thermo Fisher Scientific 4331182 Hs02800695_ml), and FKBP5 (Thermo Fisher Scientific 4331182 Hs01561006_m1). Polymerase chain reaction amplifications were performed in a total volume of 20 μL containing 20× TaqMan Expression Assay primers, 2× TaqMan Universal Master Mix (Applied Biosystems, TaqMan® Gene Expression Systems), and cDNA template. Each polymerase chain reaction amplification was performed in triplicate wells in a StepOne Real-Time PCR System (Applied Biosystems) by using the following conditions: 500C 2 minutes, 95° C. 10 minutes, 95° C. 15 seconds (denature) and 60° C. 1 minute (anneal/extend) for 40 cycles. Fold change was calculated as the following: (Ct-Ct high)=n target, 2ntarget/2nHPRT=fold change where Ct=threshold cycle. The results were expressed as average fold change in or differential gene expression relative to control, with HPRT used as an internal control according to Livak and Schmittgen.

ACTH = test: Spectral flow cytometry, ACTH positive cells, iPSCUSP48MV organoids; type: cell-based, human; details: 48 h, FIGS. 8C, G
Description: as §1
The multicolor flow cytometry antibody panel was designed using the Cytek® Full Spectrum Viewer online tool to calculate the similarity index. Organoids were harvested in cold Serum-Free Defined Medium media and incubated with Zombie (BioLegend 423107, 1:100) for 15 minutes in the dark at room temperature, followed by incubation with fluorochrome-conjugated/unconjugated primary surface or cytoplasmic antibodies (Table 6) at 4° C. for 30 minutes. Cells were then washed with Cell Staining Buffer (BioLegend 420-201) and incubated at 4° C. for 30 minutes with secondary antibodies (Table 6). Cells were fixed using Cytofix/Cytoperm™ Fixation/Permeabilization Solution (BD Biosciences 554714) and washed with Fixation/Permeabilization wash buffer according to the recommended protocol. […] Data was acquired using the Cytek® Aurora, analyzed using Cytobank Premium software (Beckman Coulter).

FKBP5 = FKBP5 expression (GR target gene, qRT-PCR) in PitNET organoids; type: cell-based, human; details: 48 h, FIG. 16A-C; for differential expression of FKBP5: PitNET organoids (iPSCctrl, iPSCUSP48MV, iPSCUSP8)
Description: as §1
as §2, with “10 minutes, 95° C. 15 seconds (denature) and 60° C. 1 minute (anneal/extend) for 40 cycles.” left out

Structure (SMILES)	ACTH secretion from PitNET organoids (PitNET organoids)	binding to the progesterone receptor (progesterone receptor)	SSTR2 induction relative to SSTR5 (SSTR2)	SSTR2 induction relative to SSTR5 (SSTR2; listed as Mifepristone)	induction in SSTR2 expression, mifepristone compared to relacorilant (SSTR2; 48 h)	induction in SSTR2 expression, mifepristone compared to relacorilant (SSTR2; 48 h, listed as Mifepristone)	expression of SSTR2 (SSTR2; 48 h)	differential expression of SSTR2 (SSTR2; iPSCctrl organoids, compound alone, 48 h, FIG. 5C, D)	ACTH positive cells / ACTH expression (ACTH)	differential expression of FKBP5 (FKBP5)	ACTH positive cells / ACTH expression (ACTH; listed as Relacorilant)	magnitude of FKBP5 inhibition, compared to mifepristone (FKBP5; PitNET organoids)
CC#C[C@]1(O)CC[C@H]2[C@@H]3CCC4=CC(=O)CCC4=C3[C@@H](c3ccc(N(C)C)cc3)C[C@@]21C [mifepristone, 11β-(4-dimethylaminophenyl)-17ß-hydroxy-17α-(1-propynyl)-estra-4,9-dien-3-one]	preferentially induced the expression of SSTR2, ACTH secretion and PitNET organoid proliferation; also recorded: significantly increased ACTH secretion from PitNET both in vivo and in vitro	binding to the progesterone receptor	predominantly induced SSTR2 expression; also recorded: significantly greater induction in SSTR2 than SSTR5	induces SSTR2 with greater magnitude compared to SSTR5	preferentially induced the expression of SSTR2	significantly greater induction in SSTR2 expression when compared to relacorilant	significant induction; also recorded: significantly induced the expression	significantly induced	significant induction in the number of ACTH positive cells; also recorded: significantly increased the ACTH expression levels	significantly reduced	–	–
Cn1cc(S(=O)(=O)N2CCC3=Cc4c(cnn4-c4ccc(F)cc4)C[C@]3(C(=O)c3cc(C(F)(F)F)ccn3)C2)cn1 [relacorilant, (R)-(1-(4-fluorophenyl)-6-((1-methyl-1H-pyrazol-4-yl)sulfonyl)-4,4a,5,6,7,8-hexahydro-1H-pyrazolo[3,4-g]isoquinolin-4a-yl) (4-(trifluoromethyl)pyridin-2-yl) methanone]	without significant stimulation of ACTH secretion; also recorded: without an increase in ACTH secretion	no detectable binding	–	–	–	–	significant induction; also recorded: significantly induced the expression	–	did not significantly increase the number of ACTH-positive cells	significantly reduced	did not significantly increase ACTH	significantly greater
